Data as given in US10980765B2, “Isothiocyanatostilbenes as a novel method and product for treating cancer” (BOARD OF SUPERVISORS OF LOUISIANA STATE UNIVERSITY AND …, priority 2015, dated 2021).

Key:
[1] = tested on: MDA-MB-231/GFP human breast cancer cells; experiment: Xenograft study, orthotopic breast tumor growth; assay type: in vivo, Athymic nude mice; details: 5 mg/kg then 10 mg/kg i.p.
Excerpt: Data are shown as average+S.E.M., *p<0.05.
Xenograft studies: All animal experiments were approved by the Institutional Animal Care and Use Committee, University of Louisiana at Monroe, and were handled in strict accordance with good animal practice as defined by the NIH guidelines. Athymic nude mice (Foxn1^nu/Foxn1^+, 4-5 weeks, female) were purchased from Harlan (Indianapolis, Ind.). The mice had free access to standard pellet food and water. The animals were acclimated to animal house facility conditions at a temperature of 18-25° C., with a relative humidity of 55 to 65% and a 12 h light/dark cycle, for one week prior to the experiments. MDA-MB-231/GFP human breast cancer cells were cultured and resuspended in serum-free DMEM medium (20 μl). After anesthesia, cell suspensions (1×10^6 cells/20 μl) were inoculated subcutaneously into the second mammary gland fat pad just beneath the nipple of each animal to generate orthotopic breast tumors. […] The mice were monitored by measuring tumor volume, body weight, and clinical observation. Tumor volume (V) was calculated by V=L/2×W^2, where L was the length and W was the width of tumors. The results are presented as average ±S.E.M. Differences among various treatment groups were determined by the analysis of variance (ANOVA) followed by Dunnett's test using PASW statistics version 18. […]

c-Met [2] = molecular target: T1, c-Met (Homo sapiens, UniProt P08581); experiment: Western blot of pMet in c-Met amplified H1993 lung cancer cells without HGF; assay type: cell-based; parameters: endogenous in cells; details: 5 μM compound; no HGF, constitutive c-Met activation
Experimental: (§1) Western blot was used to analyze pMet expression. […] Western blot was used to analyze the indicated proteins.
H1993 cells have c-Met amplification such that they have high levels of pMet, even in the absence of HGF, due to constitutive c-Met dimerization and autophosphorylation.
(§2) Western blot analysis: Cells were grown to ˜70% confluency prior to treatment. Cells were serum-starved in serum-free media for 30 minutes prior to treatment in complete media or serum-free media for the indicated times. Cell lysates were collected in Laemmli (125 mM Tris, 4% SDS, 0.01% bromophenol blue, 30% sucrose) containing 0.5% β-mercaptoethanol and boiled ˜8 minutes. Primary antibodies include: phospho-c-Met (Y1234/1235), phospho-Akt (S473), pEGFR […], pIGF-IRβ (Y1135/1136) (Cell Signaling Technology; Beverly, Mass.); α-actin (Sigma-Aldrich), c-Met (C-28) (Life Technologies). Secondary antibodies include: horseradish peroxidase-conjugated anti-rabbit and anti-mouse (GE Healthcare; Pittsburgh, Pa.). ECL 2 was used for chemiluminescent detection (Thermo Scientific; Rockford, Ill.). Densitometry was calculated using ImageJ (NIH).

Cells = experiment: 2D proliferation (Cell Titer Blue); assay type: cell-based; details: 24-72 hours
Experimental: A TO timepoint was also measured. For each timepoint, cells were exposed to Cell Titer Blue reagent (Promega) for 1 hour at 37° C. 5% CO2. Experiments were performed with quadruplicate replicates. Fluorescence was measured using a BioTek Synergy 4 plate reader with Gen5 software.

c-Met M1250T (M1268T) = c-Met M1250T (M1268T) (Homo sapiens, UniProt P08581, M1250T); experiment: Phosphorylation inhibition assay (Z′-LYTE Kinase Assay-Tyr6 Peptide), mutant c-Met; assay type: biochemical; details: cell-free kinase assay, 200 μM ATP
Experimental: as §1
(§3) Phosphorylation inhibition assay: Z′-LYTE™ Kinase Assay-Tyr6 Peptide kit (Invitrogen) was used to assess the ability of tested compounds to inhibit c-Met phosphorylation. […] After 1 hour incubation at room temperature, 10 μl development solution containing site-specific protease was added to each well. Incubation was continued for 1 hour. The reaction was then stopped, and the fluorescent signal ratio of 445 nm (coumarin)/520 nm (fluorescein) was determined on a plate reader (BioTek FLx800™), which reflects the peptide substrate cleavage status and/or the kinase inhibitory activity in the reaction. […] The IC50 value for each compound was calculated by nonlinear regression of log concentration versus % c-Met phosphorylation ±S.E.M., implemented in GraphPad Prism version 5.0 (GraphPad Software, CA, USA).

wild-type c-Met = wild-type c-Met (Homo sapiens, UniProt P08581); experiment: Phosphorylation inhibition assay (Z′-LYTE Kinase Assay-Tyr6 Peptide), wild-type c-Met; assay type: biochemical; details: cell-free kinase assay, 200 μM ATP; read-out: IC50, activation of wild-type c-Met
Experimental: as §1, §3

DU145 cells = experiment: Invasion through Matrigel; assay type: cell-based; details: indicated concentrations; 33 ng/mL HGF; Matrigel 1:5
Experimental: For invasion (FIGS. 4C and 4D), wounded cells were overlaid with Matrigel diluted 1:5 in serum-free media; n=3.
Wound healing and invasion: DU145 cells were grown to ˜100% confluency prior to wounding with the IncuCyte™ WoundMaker™ (Essen Bioscience; Ann Arbor, Mich.) and washed once with complete media. For invasion, cells were covered with Matrigel diluted 1:5 in serum-free RPMI following wounding. […] Images were taken every 4 hours with the IncuCyte™ ZOOM imaging system (Essen Bioscience). Quadruplicate replicates were used in each experiment. Data are presented as percent wound density ±standard error of the mean (S.E.M.).

F0F1-ATP synthase = details: cited from earlier work
EGFR = molecular target: T2, EGFR (Homo sapiens, UniProt P00533); experiment: Western blot of EGFR activation by EGF in DU145 cells; assay type: cell-based; details: 4 μM DIDS or 25 μM H2DIDS; DU145, 100 ng/ml EGF 20 min
T2 construct: endogenous in cells; host or cells: DU145
Experimental: as §2

IGFR = molecular target: T3, IGFR (Homo sapiens, UniProt P08069); experiment: Western blot of IGFR activation by IGF in DU145 cells; assay type: cell-based; details: 4 μM DIDS or 25 μM H2DIDS; DU145, 100 ng/ml IGF 20 min
T3 construct: endogenous in cells; host or cells: DU145
Experimental: as §2

c-Met [3] = molecular target: T1, c-Met; experiment: Western blot of c-Met activation (phospho-c-Met) by HGF in cancer cell lines; assay type: cell-based; parameters: endogenous in cells; host or cells: DU145, PC3, MDA-MB-231, HCC1806
Experimental: as §1
(§4) Western blot was used to analyze the indicated proteins.
as §4, §2

T1 sequence (P08581 25-1390): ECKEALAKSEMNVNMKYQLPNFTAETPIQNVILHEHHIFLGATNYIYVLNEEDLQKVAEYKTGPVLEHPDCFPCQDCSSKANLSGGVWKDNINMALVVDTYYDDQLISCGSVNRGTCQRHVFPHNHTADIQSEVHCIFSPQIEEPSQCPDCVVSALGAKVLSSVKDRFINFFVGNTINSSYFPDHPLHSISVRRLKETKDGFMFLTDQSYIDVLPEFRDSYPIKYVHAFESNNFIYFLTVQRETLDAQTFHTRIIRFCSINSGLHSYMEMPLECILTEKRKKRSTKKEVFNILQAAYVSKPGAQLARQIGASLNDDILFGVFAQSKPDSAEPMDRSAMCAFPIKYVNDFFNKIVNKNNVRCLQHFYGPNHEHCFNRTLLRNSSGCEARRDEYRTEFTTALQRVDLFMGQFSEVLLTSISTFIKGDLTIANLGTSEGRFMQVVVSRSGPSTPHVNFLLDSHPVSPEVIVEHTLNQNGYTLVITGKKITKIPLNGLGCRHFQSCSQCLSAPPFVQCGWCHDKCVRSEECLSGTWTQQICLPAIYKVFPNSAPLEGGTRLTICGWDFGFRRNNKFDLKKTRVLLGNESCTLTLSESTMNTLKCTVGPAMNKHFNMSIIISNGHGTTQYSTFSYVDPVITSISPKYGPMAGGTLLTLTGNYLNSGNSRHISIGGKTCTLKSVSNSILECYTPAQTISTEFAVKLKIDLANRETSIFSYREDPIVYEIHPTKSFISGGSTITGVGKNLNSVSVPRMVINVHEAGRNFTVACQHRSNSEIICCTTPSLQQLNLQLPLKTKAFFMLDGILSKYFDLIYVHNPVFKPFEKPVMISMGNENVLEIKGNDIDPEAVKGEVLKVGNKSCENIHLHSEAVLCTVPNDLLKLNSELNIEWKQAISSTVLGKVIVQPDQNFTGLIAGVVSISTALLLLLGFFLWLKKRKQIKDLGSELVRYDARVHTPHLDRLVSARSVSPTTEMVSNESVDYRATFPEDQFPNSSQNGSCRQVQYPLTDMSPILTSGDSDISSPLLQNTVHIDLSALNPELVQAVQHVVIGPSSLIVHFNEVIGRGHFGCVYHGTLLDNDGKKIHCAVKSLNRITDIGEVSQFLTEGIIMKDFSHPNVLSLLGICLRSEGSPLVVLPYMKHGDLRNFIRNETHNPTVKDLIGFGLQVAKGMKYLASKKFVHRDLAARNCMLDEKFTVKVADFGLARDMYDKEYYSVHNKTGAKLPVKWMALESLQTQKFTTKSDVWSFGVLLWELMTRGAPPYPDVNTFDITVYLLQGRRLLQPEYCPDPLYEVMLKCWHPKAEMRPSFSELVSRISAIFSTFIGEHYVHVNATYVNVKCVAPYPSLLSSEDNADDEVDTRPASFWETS
Sequence of c-Met M1250T (M1268T) (P08581 956-1390 M1250T limits assumed): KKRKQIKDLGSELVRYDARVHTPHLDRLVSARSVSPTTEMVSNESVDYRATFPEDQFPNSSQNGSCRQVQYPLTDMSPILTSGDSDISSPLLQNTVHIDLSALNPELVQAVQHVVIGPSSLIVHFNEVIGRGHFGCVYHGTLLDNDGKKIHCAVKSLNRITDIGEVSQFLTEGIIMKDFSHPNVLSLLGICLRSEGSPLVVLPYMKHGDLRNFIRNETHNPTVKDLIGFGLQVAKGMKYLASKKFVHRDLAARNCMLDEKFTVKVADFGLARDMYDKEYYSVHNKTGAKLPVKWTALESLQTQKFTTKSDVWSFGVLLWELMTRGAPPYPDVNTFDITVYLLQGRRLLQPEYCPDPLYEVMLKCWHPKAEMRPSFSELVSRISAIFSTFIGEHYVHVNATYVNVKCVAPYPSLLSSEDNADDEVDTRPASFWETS
T3 sequence (P08069 31-1367): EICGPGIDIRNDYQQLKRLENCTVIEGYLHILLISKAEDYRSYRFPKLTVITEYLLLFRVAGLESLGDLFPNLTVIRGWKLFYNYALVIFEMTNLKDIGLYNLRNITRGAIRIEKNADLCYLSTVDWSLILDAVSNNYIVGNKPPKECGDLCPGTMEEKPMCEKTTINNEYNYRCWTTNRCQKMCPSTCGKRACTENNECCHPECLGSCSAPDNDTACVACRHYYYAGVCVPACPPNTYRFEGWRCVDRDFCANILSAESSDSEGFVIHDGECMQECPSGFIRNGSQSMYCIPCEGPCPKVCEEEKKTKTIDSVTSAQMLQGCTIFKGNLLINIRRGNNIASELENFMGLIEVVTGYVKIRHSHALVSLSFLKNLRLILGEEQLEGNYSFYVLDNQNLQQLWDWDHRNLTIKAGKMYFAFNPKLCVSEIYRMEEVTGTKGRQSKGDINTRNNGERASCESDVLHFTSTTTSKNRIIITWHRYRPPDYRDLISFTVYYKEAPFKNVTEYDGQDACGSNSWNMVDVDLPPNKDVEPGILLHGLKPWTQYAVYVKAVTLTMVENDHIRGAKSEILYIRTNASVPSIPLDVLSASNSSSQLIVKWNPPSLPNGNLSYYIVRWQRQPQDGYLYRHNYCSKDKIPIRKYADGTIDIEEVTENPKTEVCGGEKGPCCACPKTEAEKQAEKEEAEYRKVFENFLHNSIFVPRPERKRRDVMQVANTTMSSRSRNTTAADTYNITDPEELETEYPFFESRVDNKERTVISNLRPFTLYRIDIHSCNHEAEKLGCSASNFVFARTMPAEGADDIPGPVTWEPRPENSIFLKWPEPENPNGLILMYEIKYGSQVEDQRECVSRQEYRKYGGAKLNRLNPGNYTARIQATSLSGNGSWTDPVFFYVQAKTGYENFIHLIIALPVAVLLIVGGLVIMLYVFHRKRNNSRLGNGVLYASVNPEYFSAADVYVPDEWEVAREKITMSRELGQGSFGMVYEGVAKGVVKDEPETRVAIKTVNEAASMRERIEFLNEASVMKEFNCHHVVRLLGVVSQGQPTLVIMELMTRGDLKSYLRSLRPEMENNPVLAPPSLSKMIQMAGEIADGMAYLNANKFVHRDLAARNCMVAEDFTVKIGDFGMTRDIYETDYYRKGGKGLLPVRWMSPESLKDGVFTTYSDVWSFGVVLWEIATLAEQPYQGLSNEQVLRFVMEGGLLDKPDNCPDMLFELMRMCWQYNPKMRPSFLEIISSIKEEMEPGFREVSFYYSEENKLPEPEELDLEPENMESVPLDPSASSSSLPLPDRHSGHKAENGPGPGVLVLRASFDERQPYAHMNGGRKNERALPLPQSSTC
Sequence of wild-type c-Met (P08581 25-1390): as the sequence (P08581 25-1390) above

## O=S(=O)(O)c1cc(N=C=S)ccc1C=Cc1ccc(N=C=S)cc1S(=O)(=O)O [DIDS, 4,4′-Diisothiocyanatostilbene-2,2′-disulfonic acid]
[1]; 3×/week
  tumor size (caliper): began to reduce tumor size towards the end of the experiment
[1]; end of experiment, *p<0.05
  overall tumor weight at necropsy: Differences in overall tumor weight were evident
c-Met [2]
  pMet levels in H1993 cells: much less significant effects
Cells; complete media
  proliferation in complete media in 2D assay: minimal effects
Cells; serum-free media
  serum-free proliferation in 2D assay: minimal effects
c-Met M1250T (M1268T)
  IC50: 370 nM
wild-type c-Met
  IC50: 300 nM
DU145 cells
  HGF-induced invasion through Matrigel: inhibited HGF-induced invasion through Matrigel in a dose-dependent manner
F0F1-ATP synthase
  concentration reducing activity of F0F1-ATP synthase: low micromolar concentrations
EGFR
  EGFR activation: do not significantly reduce
IGFR
  IGFR activation: do not significantly reduce
c-Met [3]; 8 μM compound, DU145 cells, 33 ng/ml HGF 20 min, serum-free, Western blot densitometry
  reduction of c-Met activation: ~90%
c-Met [3]; DU145, 33 ng/ml HGF 20 min, wash, then 4 μM DIDS 20 or 60 minutes
  pMet levels, compound given post HGF treatment: reduced pMet levels
c-Met [3]; DU145, 4 μM DIDS 20 min, one wash, recovery from 20 minutes up to 1 hour, then 33 ng/ml HGF
  reversibility of c-Met inhibition after wash: does not irreversibly bind c-Met
c-Met [3]; DU145 cells, 33 ng/ml HGF 20 min, 10% FBS RPMI, compared with serum-free
  effective concentrations for reducing c-Met activation in 10% FBS: slightly higher effective concentrations
c-Met [3]; multiple cancer cell lines (summary)
  c-Met inhibitory effective doses: low micromolar range
